pIC50: −log10 of the molar value. “Also recorded” adds a separate entry of the source.
Key:
[1] = system: Gli1 mRNA; assay: Gli1 mRNA (qRT-PCR) in DAOY cells; assay type: cell-based, human; conditions: after treatment
Protocol: (§1) After the indicated times, a trypan blue count was performed to determine the growth rate. […] Results were normalized to endogenous control (β-actin and HPRT).
(§2) Total RNA was isolated with Trizol (Invitrogen/Life Technologies, Carlsbad, CA, USA) and reverse transcribed with SensiFAST cDNA Synthesis Kit (Bioline Reagents Limited, London, UK). Quantitative real-time PCR (Q-PCR) analysis of Gli1, Gli2, Ptch1, Bmp2, Pfkfb3, CycD1, CycD2, Pcna, Oct4, Nanog, β-2 microglobulin, β-actin and HPRT mRNA expression was performed on each cDNA sample using the VIIA7 Real Time PCR System employing Assay-on-Demand Reagents (Life Technologies).

[2] = system: WNT/β-Catenin pathway; assay: WNT/β-Catenin luciferase reporter assay (Top Flash-luciferase and β-Catenin) in MEFs WT; assay type: cell-based, mouse; conditions: increasing concentrations, 24 h
Protocol: Figure 2 Compound 12 inhibits Hh signaling without affecting AP1/Jun and WNT/β-Catenin pathways. (a) The graphs show the Hh target genes expression levels in Ptch1^−/− MEFs treated for 48 h with 12 or DMSO as control. mRNA levels were determined by quantitative real-time PCR (qRT-PCR) normalized to endogenous control (β2-microglobulin and HPRT). Pfkfb3 gene was used as negative control. *P<0.05 versus CTR. (b and c) AP1/Jun and WNT/β-Catenin pathways activity were assayed in MEFs WT transfected with MMP1-luciferase reporter and c-Jun (b) or Top Flash-luciferase reporter and β-Catenin (c), respectively, in the presence or absence of increasing concentrations of compound 12. Treatment time was 24 h, and normalization was against Renilla luciferase.

[3] = system: Hh target genes and growth markers in GCPs; assay: qRT-PCR of Hh and proliferation targets in SAG-treated GCPs; assay type: cell-based, mouse; conditions: SAG + compound at 5 and 10 μM, 48 h
Excerpt: Hh signaling is a critical regulator of cerebellum development controlling the proliferation of granule cell progenitors (GCPs) under Purkinje cell-derived Shh stimuli. Withdrawal of Hh signal, occurring physiologically after the first post-natal week in mice,[54] causes cell growth arrest and induces their differentiation into mature granules.[55] Importantly, genetic and epigenetic alterations in the Hh pathway are responsible for the lack of GCPs proliferation arrest, leading to the tumorigenic conversion of these progenitors, considered as the cell of origin of MB.[56], [57] To investigate the biological effects of 12, we first tested its ability to suppress Hh-dependent growth in 4-day-old mouse cerebellar progenitors.
Figure 4 Compound 12 inhibition of Hh-dependent growth of cerebellum granule cell progenitors. (a and b) BrdU assay in cerebellar granule cell progenitors (GCPs). GCPs isolated from 4-day-old mice were treated with SAG alone or in combination with compound 12 at 5 and 10 μM concentrations for 48 h. (a) Inhibition of cell proliferation was measured as percentage of BrdU incorporation in comparison with SAG-treated sample. […] (c) qRT-PCR analysis show Hh and proliferation targets mRNA expression levels determined in GCPs culture derived from 4-day-old mouse cerebella treated with SAG alone or in combination with compound 12 at 5 and 10 μM concentrations for 48 h. […]

[4] = system: Gli1 mRNA; assay: Gli1 mRNA (qRT-PCR) in primary MB cells from Ptch1+/− mice; assay type: cell-based, mouse; conditions: ex vivo cultures from Ptch1^+/− mice MBs
Protocol: as §2

[5] = system: Gli1 mRNA; assay: Gli1 mRNA (qRT-PCR) in 22Rv1 cells; assay type: cell-based, human; conditions: after treatment
Protocol: as §1, §2

[6] = system: human medulloblastoma DAOY cells; assay: Trypan blue growth count of DAOY cells; assay type: cell-based; conditions: versus Cyclopamine, Vismodegib, LDE-225
Protocol: as §1
(§3) Cell proliferation was evaluated by BrdU detection (Roche, Welwyn Garden City, UK). Briefly, after the BrdU pulse (24 h for GCPs) cells were fixed with 4% paraformaldehyde and permeabilized with 0.2% Triton X-100, and BrdU detection was performed according to the manufacturer's instructions. Nuclei were counterstained with Hoechst reagent. At least 500 nuclei were counted in triplicate, and the number of BrdU-positive nuclei was recorded. To determine the growth rate of viable cells, a trypan blue count was performed after a treatment period of 24–48–72 h with studied compound.

[7] = system: Gli1 mRNA; assay: Gli1 mRNA (qRT-PCR) in ASZ001 BCC cells; assay type: cell-based, mouse; conditions: after drug treatment
Protocol: After the indicated times, a trypan blue count was performed to determine the growth rate.
as §2

[8] = system: human prostate carcinoma epithelial 22Rv1 cells; assay: Trypan blue growth count of 22Rv1 cells; assay type: cell-based; conditions: versus Cyclopamine, Vismodegib, LDE-225
Protocol: as §1, §3

[9] = target: T1, human Smo D473H (Homo sapiens, UniProt Q99835, D473H); assay: Bodipy-Cyclopamine (BC) binding assay, HEK293T cells transfected with human Smo D473H
T1 construct: Myc-DDK; expressed in transfected cells; host or cells: HEK293T
T1 sequence (Q99835 28-787 D473H): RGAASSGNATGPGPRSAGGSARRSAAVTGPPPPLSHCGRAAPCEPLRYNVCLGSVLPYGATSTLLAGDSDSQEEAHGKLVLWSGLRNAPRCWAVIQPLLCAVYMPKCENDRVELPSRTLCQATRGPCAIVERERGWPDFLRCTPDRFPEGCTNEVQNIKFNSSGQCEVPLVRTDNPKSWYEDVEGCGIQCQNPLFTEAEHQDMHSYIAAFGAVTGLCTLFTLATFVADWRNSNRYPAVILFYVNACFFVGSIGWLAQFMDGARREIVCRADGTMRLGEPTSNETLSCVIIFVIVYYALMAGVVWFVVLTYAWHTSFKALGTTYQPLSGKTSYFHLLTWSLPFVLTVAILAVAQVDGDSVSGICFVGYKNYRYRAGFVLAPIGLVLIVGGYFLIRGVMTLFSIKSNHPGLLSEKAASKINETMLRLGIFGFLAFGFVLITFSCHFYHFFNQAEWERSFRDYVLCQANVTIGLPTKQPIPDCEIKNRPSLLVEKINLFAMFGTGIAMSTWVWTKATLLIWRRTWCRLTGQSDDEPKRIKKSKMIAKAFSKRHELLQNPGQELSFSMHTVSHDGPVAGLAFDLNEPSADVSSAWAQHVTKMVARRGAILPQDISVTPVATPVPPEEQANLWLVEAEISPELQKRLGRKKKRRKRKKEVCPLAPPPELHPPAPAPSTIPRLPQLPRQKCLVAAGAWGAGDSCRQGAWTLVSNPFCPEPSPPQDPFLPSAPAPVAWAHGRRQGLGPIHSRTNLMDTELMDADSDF
Protocol: Cells were washed in PBS supplemented with 0.5% fetal bovine serum, fixed in 4% paraformaldehyde in phosphate-buffered saline (PBS) for 10 min, and incubated for 2 h at 37 °C both in the same medium supplemented with Bodipy-Cyclopamine (5 nM) and the studied compounds. The cells were permeabilized with Triton X100 (Sigma) 0.2%. Dako Fluorescent mounting (Dako, Carpinteria, CA, USA) was used as mounting medium and Hoechst reagent for staining of the cell nuclei. Bodipy (green) and Hoechst (blue) signals were analyzed in three to four representative fields per coverslip (× 20 magnification, 1000 cells/field). Data were expressed as percentage of BC incorporation observed with BC alone.[95]

Structure (SMILES): COc1ccc(C=CC(=O)c2cc(OC)c(OC)cc2OC)cc1OC [Compound 12, 3-(3,4-dimethoxy-phenyl)-1-(2,4,5-trimethoxy-phenyl)-2-propen-1-one]
- Gli1 mRNA levels in DAOY cells [1]: significant decrease of Gli1 mRNA levels
- luciferase activity driven by Wnt/β-catenin signaling [2]: without affecting luciferase activity; also recorded: inactive
- mRNA levels of Hh target genes and cell growth markers (Gli1, Gli2, Ptch1, Pcna, cyclin D2) [3]: reduced mRNA levels
- Gli1 mRNA levels in primary MB cells [4]: decrease of Gli1 mRNA levels
- Gli1 mRNA levels in 22Rv1 cells [5]: significant decrease of Gli1 mRNA levels
- inhibition of DAOY cell proliferation [6]: higher activity than other Smo antagonists
- Gli1 mRNA levels in ASZ001 BCC cells [7]: decrease of Gli1 mRNA levels
- inhibition of 22Rv1 cell proliferation [8]: higher activity than other Smo antagonists
- pIC50 ([9]; BC (5 nM) displacement, transiently transfected 293T cells): 4.64
- activity on the D473H drug-resistant Smo mutant ([9]; BC displacement assay): active
- Fold shift human Smo ([9]; IC50 Smo D473H / IC50 Smo WT): 0.9257
- loss of affinity for the resistant Smo mutants in binding assay ([9]; resistant Smo mutants versus WT): conserved the same affinity

Reference: PMC5059851, “Inhibition of Hedgehog-dependent tumors and cancer stem cells by a newly identified naturally occurring chemotype” (Cell Death & Disease, 2016)
